Results: US11477982B2, “2-amino-5-oxyalkyl-pyrimidine derivatives and their use for controlling undesired plant growth” (Bayer CropScience Aktiengesellschaft, priority 2017, dated 2022)

What was measured:
Experiment in all cases: Pre-emergence herbicidal effect
Format in all cases: in vivo
[1] = test system: POLCO: Polygonum convolvulus; settings: dosage 320 g/ha
Text: (§1) 1. Pre-Emergence Herbicidal Effect and Crop Plant Compatibility
(§2) Seeds of monocotyledonous and dicotyledonous weed plants and crop plants are placed in plastic or wood fiber pots and covered with soil. The compounds of the invention, formulated in the form of wettable powders (WP) or as emulsion concentrates (EC), are then applied onto the surface of the covering soil as aqueous suspension or emulsion with addition of 0.5% additive at a water application rate of 600 l/ha (converted).
(§3) After the treatment, the pots are placed in a greenhouse and kept under good growth conditions for the trial plants. After about 3 weeks, the effect of the preparations is scored visually in comparison with untreated controls as percentages. For example, 100% activity=the plants have died, 0% activity=like control plants.

VIOTR: Viola tricolor = settings: dosage 320 g/ha
Text: as §1, §2, §3

[2] = test system: AMARE: Amaranthus retroflexus; settings: pre-emergence; dosage 320 g/ha
Text: as §1, §2, §3

VERPE: Veronica persica = settings: dosage 320 g/ha
Text: as §1, §2, §3

[3] = test system: MATIN: Matricaria inodora; settings: pre-emergence; dosage 320 g/ha
Text: as §1, §2, §3

Compound: COc1cccc2c1CCCC2Nc1ncc(C(C)(C)O)c(C)n1 (racemic) [Example 1.44]
- Herbicidal action against POLCO [1]: 100%
- Herbicidal action against VIOTR (VIOTR: Viola tricolor): 100%
- Herbicidal action against AMARE [2]: 100%
- Herbicidal action against VERPE (VERPE: Veronica persica): 100%
- Herbicidal action against MATIN [3]: 100%

Compound: Cc1ccc2c(c1)[C@H](Nc1ncc(C(C)(C#N)O[Si](C)(C)C)cn1)[C@@H](C)C2 (stereo partly shown) [Example 1.16]
- Herbicidal action against POLCO [1]: 100%
- Herbicidal action against VIOTR (VIOTR: Viola tricolor): 100%
- Herbicidal action against AMARE [2]: 100%
- Herbicidal action against VERPE (VERPE: Veronica persica): 100%
- Herbicidal action against MATIN [3]: 100%

Compound: Cc1ccc2c(c1)[C@H](Nc1ncc(C(C)(O)CC(C)C)cn1)[C@@H](C)C2 (stereo partly shown) [Example 1.25]
- Herbicidal action against POLCO [1]: 100%
- Herbicidal action against VIOTR (VIOTR: Viola tricolor): 100%
- Herbicidal action against AMARE [2]: 100%
- Herbicidal action against VERPE (VERPE: Veronica persica): 100%
- Herbicidal action against MATIN [3]: 100%

Compound: CC(C)=CC(C)(O)c1cnc(N[C@H]2c3cc(C)ccc3C[C@@H]2C)nc1 (stereo partly shown) [Example 1.27]
- Herbicidal action against POLCO [1]: 100%
- Herbicidal action against VIOTR (VIOTR: Viola tricolor): 100%
- Herbicidal action against AMARE [2]: 100%
- Herbicidal action against VERPE (VERPE: Veronica persica): 100%
- Herbicidal action against MATIN [3]: 100%

Compound: Cc1ccc2c(c1)[C@H](Nc1ncc(C(C)O)c(C(C)F)n1)[C@@H](C)C2 (stereo partly shown) [Example 1.19]
- Herbicidal action against POLCO [1]: 100%
- Herbicidal action against VIOTR (VIOTR: Viola tricolor): 100%
- Herbicidal action against AMARE [2]: 100%
- Herbicidal action against VERPE (VERPE: Veronica persica): 100%
- Herbicidal action against MATIN [3]: 100%

Compound: Cc1ccc2c(c1)[C@H](Nc1ncc(C(C)(O)Cc3ccccc3)cn1)[C@@H](C)C2 (stereo partly shown) [Example 1.26]
- Herbicidal action against POLCO [1]: 100%
- Herbicidal action against VIOTR (VIOTR: Viola tricolor): 100%
- Herbicidal action against AMARE [2]: 100%
- Herbicidal action against VERPE (VERPE: Veronica persica): 100%
- Herbicidal action against MATIN [3]: 100%

Compound: Cc1ccc2c(c1)[C@H](Nc1ncc(C(C)OCc3ccc(F)cc3)cn1)[C@@H](C)C2 (stereo partly shown) [Example 1.3]
- Herbicidal action against POLCO [1]: 80%
- Herbicidal action against VIOTR (VIOTR: Viola tricolor): 100%
- Herbicidal action against AMARE [2]: 100%
- Herbicidal action against VERPE (VERPE: Veronica persica): 100%
- Herbicidal action against MATIN [3]: 100%

Compound: CC(C)(O)c1cnc(NC2CCOc3ccccc32)nc1 (racemic) [Example 1.9]
- Herbicidal action against POLCO [1]: 100%
- Herbicidal action against VIOTR (VIOTR: Viola tricolor): 100%
- Herbicidal action against AMARE [2]: 100%
- Herbicidal action against VERPE (VERPE: Veronica persica): 100%
- Herbicidal action against MATIN [3]: 100%

Compound: Cc1nc(N[C@@H]2CCc3ccccc32)ncc1C(C)O (stereo partly shown) [Example 1.47]
- Herbicidal action against POLCO [1]: 100%
- Herbicidal action against VIOTR (VIOTR: Viola tricolor): 100%
- Herbicidal action against AMARE [2]: 100%
- Herbicidal action against VERPE (VERPE: Veronica persica): 100%
- Herbicidal action against MATIN [3]: 100%

Compound: Cc1ccc2c(c1)[C@H](Nc1ncc(C(C)(O)c3ccccc3)cn1)[C@@H](C)C2 (stereo partly shown) [Example 1.21]
- Herbicidal action against POLCO [1]: 100%
- Herbicidal action against VIOTR (VIOTR: Viola tricolor): 100%
- Herbicidal action against AMARE [2]: 100%
- Herbicidal action against VERPE (VERPE: Veronica persica): 100%
- Herbicidal action against MATIN [3]: 100%

Compound: Cc1cccc2c1CCCC2Nc1ncc(C(C)(C)O)cn1 (racemic) [Example 1.41]
- Herbicidal action against POLCO [1]: 100%
- Herbicidal action against VIOTR (VIOTR: Viola tricolor): 100%
- Herbicidal action against AMARE [2]: 100%
- Herbicidal action against VERPE (VERPE: Veronica persica): 100%
- Herbicidal action against MATIN [3]: 100%
